According to patent US20070232601A1, “Vla-4 Inhibitor” (priority 2004, published 2007):

target: T1, hα4 and β1 integrins (VLA-4) (Homo sapiens, UniProt P05556+P13612); test: In vitro evaluation: inhibition of binding of CHO cells expressing hα4 and β1 integrins to Eu3+-hVCAM-1 D1D7-IgG; settings: ligand Eu3+-hVCAM-1 D1D7-IgG 2 nM, Ki calculated from IC50
T1 construct: expressed in transfected cells; host or cells: CHO cells
Experimental: CHO cells which were forced to be expressed by transduction of hα4 and β1 integrins are seeded (3×10^4 cells/100 μl/well) on a Costar 3599 plate, and cultured for 2 days. A medium is washed with a buffer A* two times, and Eu^3+-hVCAM-1 D1D7-IgG which was diluted with an assay buffer A** to 2 nM is added at 50 μl/well. A test substance which was diluted with 2% DMSO-assay buffer (in the presence or the absence of 6% human serum albumin) is added at 50 μl/well (A solution which was separately diluted is added to a well in which Scatchard analysis is performed), this is stirred with a plate mixer for 5 minutes, and allowed to stand at room temperature for 1 hour. Thereafter, this is washed with a buffer A four times, a potentiating reagent (manufactured by DELFIA) is added at 100 μl/well, this is shaken for 5 minutes using a plate mixer, and a fluorescence intensity is measured with a time-resolved fluorometer (DELFIA Wallac). IC50 (concentration at which binding of CHO cell and Eu^3+-hVCAM-1 D1D7-IgG is inhibited by 50%) of a test substance is obtained from an integration rate obtained from a calculation equation: [(FT−FNS)−(FI−FNS)]/[(FT−FNS)]×100, wherein FT indicates a fluorescence intensity of a well not containing a test substance, FNS indicates a fluorescence intensity of a well not containing a test substance and hVCAM-1 D1D7-IgG, and FI indicates a fluorescence intensity containing a test substance. A Kd value showing strength of binding and Bmax (maximum binding amount) were presumed in a range of 0.06 to 20 nM according to the Scachard analysis method. [formula]
A Ki value was calculated according to the above equation ([L] is ligand concentration)
[* buffer A: 25 mM HEPES (pH 7.5), 150 mM NaCl, 1 mM Ca^2+, 1 mM Mg^2+, 4 mM Mn^2+; ** assay buffer: 25 mM HEPES (pH 7.5), 150 mM NaCl, 1 mM Ca^2+, 1 mM Mg^2+, 4 mM Mn^2+, 0.1% BSA, 20 μM DTPA, with/without 6% ALBUMIN, HUMAN SERUM (C/NA-1653, SIGMA)]

T1 sequence (P13612 34-1032): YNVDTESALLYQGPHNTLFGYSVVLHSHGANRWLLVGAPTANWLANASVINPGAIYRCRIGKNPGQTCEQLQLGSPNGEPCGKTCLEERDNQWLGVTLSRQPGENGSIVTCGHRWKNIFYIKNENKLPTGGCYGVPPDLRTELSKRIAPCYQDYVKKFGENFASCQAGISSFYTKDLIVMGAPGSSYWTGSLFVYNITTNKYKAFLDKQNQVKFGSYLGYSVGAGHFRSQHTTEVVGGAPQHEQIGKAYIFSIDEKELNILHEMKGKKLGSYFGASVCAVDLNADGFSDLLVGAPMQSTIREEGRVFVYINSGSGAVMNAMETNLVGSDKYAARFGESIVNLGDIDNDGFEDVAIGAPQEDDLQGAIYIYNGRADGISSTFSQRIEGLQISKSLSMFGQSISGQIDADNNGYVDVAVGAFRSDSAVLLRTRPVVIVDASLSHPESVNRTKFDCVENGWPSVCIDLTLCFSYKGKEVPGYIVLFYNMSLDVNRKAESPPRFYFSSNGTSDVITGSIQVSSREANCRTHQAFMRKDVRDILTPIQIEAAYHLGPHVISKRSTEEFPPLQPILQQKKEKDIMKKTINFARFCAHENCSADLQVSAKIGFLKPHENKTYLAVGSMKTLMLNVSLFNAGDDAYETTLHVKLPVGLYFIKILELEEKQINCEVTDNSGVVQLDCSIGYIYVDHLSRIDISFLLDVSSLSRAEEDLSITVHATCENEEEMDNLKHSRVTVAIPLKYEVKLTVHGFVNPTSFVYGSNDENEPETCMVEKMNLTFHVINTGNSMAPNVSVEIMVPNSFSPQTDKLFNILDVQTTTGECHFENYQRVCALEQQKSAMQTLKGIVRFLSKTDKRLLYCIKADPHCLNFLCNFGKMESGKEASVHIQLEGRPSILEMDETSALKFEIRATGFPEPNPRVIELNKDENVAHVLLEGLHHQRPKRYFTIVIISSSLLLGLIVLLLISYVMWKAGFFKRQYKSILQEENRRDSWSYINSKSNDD
T1 sequence (P05556 21-798): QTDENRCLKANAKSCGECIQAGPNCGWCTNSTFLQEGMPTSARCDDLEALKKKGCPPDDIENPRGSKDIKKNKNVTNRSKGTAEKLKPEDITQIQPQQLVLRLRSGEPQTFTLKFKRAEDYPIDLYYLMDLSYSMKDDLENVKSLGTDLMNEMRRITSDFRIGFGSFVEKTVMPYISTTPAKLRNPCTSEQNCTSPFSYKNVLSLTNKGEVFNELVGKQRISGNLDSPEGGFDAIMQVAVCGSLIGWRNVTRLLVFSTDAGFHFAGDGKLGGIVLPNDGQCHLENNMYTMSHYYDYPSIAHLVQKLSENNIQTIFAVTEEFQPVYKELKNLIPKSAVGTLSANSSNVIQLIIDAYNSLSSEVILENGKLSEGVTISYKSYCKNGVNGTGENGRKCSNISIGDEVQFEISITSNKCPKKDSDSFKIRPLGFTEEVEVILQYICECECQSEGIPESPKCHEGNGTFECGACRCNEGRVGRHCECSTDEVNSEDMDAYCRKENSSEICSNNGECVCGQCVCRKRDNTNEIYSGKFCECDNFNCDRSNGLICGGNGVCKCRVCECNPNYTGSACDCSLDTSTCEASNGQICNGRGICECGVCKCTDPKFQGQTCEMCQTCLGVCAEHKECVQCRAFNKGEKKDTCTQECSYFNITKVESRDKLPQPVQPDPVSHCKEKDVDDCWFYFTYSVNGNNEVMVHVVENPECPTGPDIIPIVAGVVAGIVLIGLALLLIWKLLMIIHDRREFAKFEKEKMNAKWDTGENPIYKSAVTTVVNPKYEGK

Structure (SMILES) | Ki [nM]
CO[C@H]1C[C@@H](c2ncc(CCC(=O)O)o2)N(C(=O)Cc2cc(Cl)c(NC(=O)c3csc4ccccc34)cc2F)C1 [Example 15, 3-[2-[1-[[4-[(3-Benzo[b]thienylcarbonyl)amino]-5-chloro-2-fluorophenyl]acetyl]-(4S)-methoxy-(2S)-pyrrolidinyl]-5-oxazolyl]propionic acid] | 4.5
CON(C)[C@H]1C[C@@H](c2ncc(CCC(=O)O)s2)N(C(=O)Cc2cc(Cl)c(NC(=O)c3cn(C)c4ccccc34)cc2Cl)C1 [Example 128, 3-[3-[1-[2,5-Dichloro-4-(1-methyl-3-indolylcarbonylamino)phenylacetyl]-(4S)—N,O-dimethylhydroxylamino-(2S)-pyrrolidinyl]-5-thiazolyl]propionic acid] | 6.7
CO[C@H]1C[C@@H](c2ncc(CCC(=O)O)o2)N(C(=O)Cc2cc(Cl)c(NC(=O)c3cn(C)c4ccccc34)cc2F)C1 [Example 13, 3-[2-[1-[5-Chloro-2-fluoro-4-(1-methyl-3-indolylcarbonyl)aminophenylacetyl]-(4S)-methoxy-(2S)-pyrrolidinyl]-5-oxazolyl]propionic acid] | 17
COc1ccc(F)cc1Nc1nc2ccc(CC(=O)N3C[C@@H](OC)C[C@H]3c3ncc(CCC(=O)O)o3)c(F)c2o1 [Example 16, 3-[2-[1-[[7-Fluoro-2-(5-fluoro-2-methoxyphenylamino)-1,3-benzoxazol-6-yl]acetyl]-(4S)-methoxy-(2S)-pyrrolidinyl]-5-oxazolyl]propionic acid] | 22
CON(C)[C@H]1C[C@@H](c2ncc(CCC(=O)O)s2)N(C(=O)Cc2cc(Cl)c(NC(=O)c3csc4ccccc34)cc2F)C1 [Example 129, 3-[2-[1-[4-(3-Benzo[b]thiophenylcarbonylamino)-5-chloro-2-fluorophenylacetyl]-(4S)—N,O-dimethylhydroxylamino-(2S)-pyrrolidinyl]-5-thiazolyl]propionic acid] | 2.4
CO[C@H]1C[C@@H](c2ncc(CCC(=O)O)s2)N(C(=O)Cc2cc(Cl)c(NC(=O)c3nn(C)c4ccccc34)cc2F)C1 [Example 7, 3-[2-[1-[5-Chloro-2-fluoro-4-(1-methyl-3-indazolylcarbonyl)aminophenylacetyl]-(4S)-methoxy-(2S)-pyrrolidinyl]-5-thiazolyl]propionic acid] | 0.97
CCO[C@H]1CCN(C(=O)Cc2cc(Cl)c(Nc3nc4ccccc4s3)cc2Cl)[C@@H]1c1ncc(CCC(=O)O)s1 [Example 115, 3-[2-[1-[4-(2-Benzothiazolyl)amino-2,5-dichlorophenyl]acetyl-(3S)-ethoxy-(2S)-pyrrolidinyl]-5-thiazolyl]propionic acid] | 8.4
O=C(O)CCc1cnc([C@@H]2[C@@H](O)CCN2C(=O)Cc2cc(Cl)c(NC(=O)c3csc4ccccc34)cc2Cl)s1 [Example 123] | 3.5
CO[C@H]1C[C@@H](c2ncc(CCC(=O)O)s2)N(C(=O)Cc2cc(Cl)c(NC(=O)c3csc4ccccc34)cc2Cl)C1 [Example 3, 3-[2-[1-[[4-[(3-Benzo[b]thienylcarbonyl)amino]-2,5-dichlorophenyl]acetyl]-(4S)-methoxy-(2S)-pyrrolidinyl]-5-thiazolyl]propionic acid] | 0.58
CCO[C@H]1CCN(C(=O)Cc2cc(Cl)c(NC(=O)c3coc4ccccc34)cc2F)[C@@H]1c1ncc(CCC(=O)O)o1 [Example 101] | 9.8
O=C(O)CCc1cnc([C@@H]2C[C@H](OC3CCC3)CN2C(=O)Cc2cc(Cl)c(NC(=O)c3coc4ccccc34)cc2Cl)s1 [Example 42, 3-[2-[1-[4-[(1-Benzofuran-3-ylcarbonyl)amino]-2,5-dichlorophenylacetyl]-(4S)-cyclobutoxy-(2S)-pyrrolidinyl]-5-thiazolyl]propionic acid] | 7
COC[C@@H]1CC[C@@H](c2ncc(CCC(=O)O)s2)N1C(=O)Cc1cc(Cl)c(NC(=O)c2coc3ccccc23)cc1F [Example 56, 3-[2-[1-[4-[(1-Benzofuran-3-ylcarbonyl)amino]-5-chloro-2-fluorophenylacetyl]-(5S)-methoxymethyl-(2S)-pyrrolidinyl]-5-thiazolyl]propionic acid] | 66
CCO[C@H]1CCN(C(=O)Cc2cc(Cl)c(NC(=O)c3csc4ccccc34)cc2Cl)[C@@H]1c1ncc(CCC(=O)O)s1 [Example 94] | 6.2
O=C(O)CCc1cnc([C@@H]2C[C@H](OC3CCC3)CN2C(=O)Cc2cc(Cl)c(NC(=O)c3csc4ccccc34)cc2F)s1 [Example 41] | 2.2

The remaining lines, values ahead:

Ki [nM] | Structure (SMILES)
22 | CCOC[C@@H]1CC[C@@H](c2ncc(CCC(=O)O)s2)N1C(=O)Cc1cc(Cl)c(NC(=O)c2csc3ccccc23)cc1F [Example 49, 3-[2-[1-[4-[(3-Benzo[b]thienylcarbonyl)amino]-5-chloro-2-fluorophenylacetyl]-(5S)-ethoxymethyl-(2S)-pyrrolidinyl]-5-thiazolyl]propionic acid]
17 | Cn1cc(C(=O)Nc2cc(F)c(CC(=O)N3[C@H](c4ncc(CCC(=O)O)s4)C[C@@H]4CCCC[C@@H]43)cc2Cl)c2ccccc21 [Example 59, 3-[2-[1-[5-Chloro-2-fluoro-4-(1-methyl-3-indolylcarbonyl)aminophenylacetyl]-(2S)-octahydroindolyl]-5-thiazolyl]propionic acid]
18 | CO[C@H]1C[C@@H](c2ncc(CCC(=O)O)o2)N(C(=O)Cc2cc(Cl)c(NC(=O)c3cn(C)c4ccccc34)cc2Cl)C1 [Example 12, 3-[2-[1-[2,5-Dichloro-4-(1-methyl-3-indolylcarbonylamino)phenylacetyl]-(4S)-methoxy-(2S)-pyrrolidinyl]-5-oxazolyl]propionic acid]
0.23 | O=C(O)CCc1cnc([C@@H]2C[C@H](F)CN2C(=O)Cc2cc(Cl)c(NC(=O)c3coc4ccccc34)cc2F)s1 [Example 22, 3-[2-[1-[[4-[(1-Benzofuran-3-ylcarbonyl)amino]-5-chloro-2-fluorophenyl]acetyl]-(4S)-fluoro-(2S)-pyrrolidinyl]-5-thiazolyl]propionic acid]
16 | COC[C@@H]1CC[C@@H](c2ncc(CCC(=O)O)s2)N1C(=O)Cc1cc(Cl)c(NC(=O)c2cn(C)c3ccccc23)cc1F [Example 53, 3-[2-[1-[5-Chloro-2-fluoro-4-(1-methyl-3-indolylcarbonyl)aminophenylacetyl]-(5S)-methoxymethyl-(2S)-pyrrolidinyl]-5-thiazolyl]propionic acid]
2.6 | CCO[C@H]1CCN(C(=O)Cc2ccc3nc(Nc4cc(F)ccc4C)oc3c2F)[C@@H]1c1ncc(CCC(=O)O)o1 [Example 103, 3-[2-[1-[[7-Fluoro-2-(5-fluoro-2-methylphenyl)amino-6-benzoxazolyl]acetyl]-(3S)-ethoxy-(2S)-pyrrolidinyl]-5-oxazolyl]propionic acid]
24 | COC[C@@H]1CC[C@@H](c2ncc(CCC(=O)O)s2)N1C(=O)Cc1cc(Cl)c(NC(=O)c2cn(C)c3ccccc23)cc1Cl [Example 54, 3-[2-[1-[2,5-Dichloro-4-(1-methyl-3-indolylcarbonylamino)phenylacetyl]-(5S)-methoxymethyl-(2S)-pyrrolidinyl]-5-thiazolyl]propionic acid]
11 | CCO[C@H]1CCN(C(=O)Cc2cc(Cl)c(NC(=O)c3cn(C)c4ccccc34)cc2Cl)[C@@H]1c1ncc(CCC(=O)O)o1 [Example 98, 3-[2-[1-[[2,5-Dichloro-4-(1-methyl-3-indolylcarbonylamino)phenyl]acetyl]-(3S)-ethoxy-(2S)-pyrrolidinyl]-5-oxazolyl]propionic acid]
5.1 | CC(C)O[C@H]1C[C@@H](c2ncc(CCC(=O)O)s2)N(C(=O)Cc2cc(Cl)c(NC(=O)c3cn(C)c4ccccc34)cc2Cl)C1 [Example 34, 3-[2-[1-[2,5-Dichloro-4-(1-methyl-3-indolylcarbonylamino)phenylacetyl]-(4S)-isopropoxy-(2S)-pyrrolidinyl]-5-thiazolyl]propionic acid]
17 | COC[C@@H]1CC[C@@H](c2ncc(CCC(=O)O)s2)N1C(=O)Cc1cc(Cl)c(NC(=O)c2csc3ccccc23)cc1F [Example 55, 3-[2-[1-[4-[(3-Benzo[b]thienylcarbonyl)amino]-5-chloro-2-fluorophenylacetyl]-(5S)-methoxymethyl-(2S)-pyrrolidinyl]-5-thiazolyl]propionic acid]
2.9 | CCO[C@H]1CCN(C(=O)Cc2cc(Cl)c(NC(=O)c3csc4ccccc34)cc2F)[C@@H]1c1ncc(CCC(=O)O)s1 [Example 93]
0.4 | CO[C@H]1C[C@@H](c2ncc(CCC(=O)O)s2)N(C(=O)Cc2cc(Cl)c(NC(=O)c3coc4ccccc34)cc2F)C1 [Example 6, 3-[2-[1-[4-[(1-Benzofuran-3-ylcarbonyl)amino]-5-chloro-2-fluorophenylacetyl]-(4S)-methoxy-(2S)-pyrrolidinyl]-5-thiazolyl]propionic acid]
